Key:
Assay type in all cases: biochemical
Rlk = biological target: T1, Rlk (Homo sapiens, UniProt P42681); test: RLK inhibition assay, standard coupled enzyme assay; conditions: 100 μM ATP, 40 nM Rlk, 30° C.
T1 sequence (P42681 1-527): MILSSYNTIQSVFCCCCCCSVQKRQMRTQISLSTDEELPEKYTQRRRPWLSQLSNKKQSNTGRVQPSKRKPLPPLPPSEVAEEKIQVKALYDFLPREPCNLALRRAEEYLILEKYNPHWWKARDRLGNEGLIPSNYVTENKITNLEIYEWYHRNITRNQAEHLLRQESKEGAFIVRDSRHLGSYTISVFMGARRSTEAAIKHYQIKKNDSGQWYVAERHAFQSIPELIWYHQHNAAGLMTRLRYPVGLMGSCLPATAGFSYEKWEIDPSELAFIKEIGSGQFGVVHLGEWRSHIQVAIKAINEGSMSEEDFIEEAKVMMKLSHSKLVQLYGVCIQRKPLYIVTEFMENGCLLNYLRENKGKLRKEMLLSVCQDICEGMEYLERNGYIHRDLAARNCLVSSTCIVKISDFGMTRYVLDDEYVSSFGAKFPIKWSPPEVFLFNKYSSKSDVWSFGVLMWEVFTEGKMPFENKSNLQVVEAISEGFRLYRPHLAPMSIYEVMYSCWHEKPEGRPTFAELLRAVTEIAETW
Method: Compounds were screened for their ability to inhibit Rlk using a standard coupled enzyme assay (Fox et al., Protein Sci., (1998) 7, 2249). Assays were carried out in a mixture of 20 mM MOPS (pH 7.0), 10 mM MgCl2, 0.1% BSA and 1 mM DTT. Final substrate concentrations in the assay were 100 μM ATP (Sigma Chemicals) and 10 μM peptide (Poly Glu:Tyr 4:1). Assays were carried out at 30° C. and in the presence of 40 nM Rlk. Final concentrations of the components of the coupled enzyme system were 2.5 mM phosphoenolpyruvate, 300 μM NADH, 30 μg/ml pyruvate kinase and 10 μg/ml lactate dehydrogenase.
(§1) An assay stock buffer solution was prepared containing all of the reagents listed above, with the exception of ATP and the test compound of interest. 60 μl of the stock solution was placed in a 96 well plate followed by addition of 2 μA of DMSO stock containing serial dilutions of the test compound (typically starting from a final concentration of 7.5 μM). The plate was preincubated for 10 minutes at 30° C. and the reaction initiated by addition of 5 μl of ATP. Initial reaction rates were determined with a Molecular Devices SpectraMax Plus plate reader over a 10 minute time course. IC50 and Ki data were calculated from non-linear regression analysis using the Prism software package (GraphPad Prism version 3.0cx for Macintosh, GraphPad Software, San Diego Calif., USA).

Itk [1] = biological target: T2, Itk (Homo sapiens, UniProt Q08881); test: ITK inhibition assay, radioactive-phosphate incorporation; conditions: [γ-33P]ATP, SAM68 peptide, 25° C.
T2 sequence (Q08881 1-620): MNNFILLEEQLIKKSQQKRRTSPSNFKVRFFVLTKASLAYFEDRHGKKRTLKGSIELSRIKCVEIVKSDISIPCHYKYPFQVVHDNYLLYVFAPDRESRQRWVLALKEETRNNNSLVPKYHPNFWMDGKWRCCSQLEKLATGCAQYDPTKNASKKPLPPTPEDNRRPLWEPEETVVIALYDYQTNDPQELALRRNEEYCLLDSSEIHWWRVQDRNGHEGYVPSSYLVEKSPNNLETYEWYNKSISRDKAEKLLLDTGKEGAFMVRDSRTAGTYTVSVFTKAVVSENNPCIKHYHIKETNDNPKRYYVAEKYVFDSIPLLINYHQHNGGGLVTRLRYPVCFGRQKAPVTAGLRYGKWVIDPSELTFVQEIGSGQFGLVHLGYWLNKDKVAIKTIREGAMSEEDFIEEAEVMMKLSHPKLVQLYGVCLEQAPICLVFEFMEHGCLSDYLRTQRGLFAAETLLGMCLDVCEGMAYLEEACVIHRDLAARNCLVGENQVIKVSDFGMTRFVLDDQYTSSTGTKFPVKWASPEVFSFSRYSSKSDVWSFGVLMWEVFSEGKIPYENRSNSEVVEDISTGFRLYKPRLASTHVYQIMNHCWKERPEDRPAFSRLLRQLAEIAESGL
Method: Assays were carried out in a mixture of 20 mM MOPS (pH 7.0), 10 mM MgCl2, 0.1% BSA and 1 mM DTT. […] Assays were carried out at 25° C. in the presence of 50 nM Itk. An assay stock buffer solution was prepared containing all of the reagents listed above, with the exception of ATP and the test compound of interest.
(§2) The reaction was stopped after 10 minutes by the addition of […] 0.2M phosphoric acid+0.01% TWEEN 20. A multiscreen phosphocellulose filter 96-well plate (Millipore, Cat no. MAPHN0B50) was pretreated with 100 μL 0.2M phosphoric acid+0.01% TWEEN 20 prior to the addition of […] of the stopped assay mixture. The plate was washed with 4×200 μL 0.2M phosphoric acid+0.01% TWEEN 20.
Ki(app) data were calculated from non-linear regression analysis of the initial rate data using the Prism software package (GraphPad Prism version 3.0cx for Macintosh, GraphPad Software, San Diego Calif., USA).

Itk [2] = biological target: T2, Itk; test: ITK inhibition assay (UV), standard coupled enzyme assay; conditions: 100 μM ATP, 100 nM Itk, 25° C.
Method: Assays were carried out in a mixture of 20 mM MOPS (pH 7.0), 10 mM MgCl2, 0.1% BSA, 1 mM DTT, 2.5 mM phosphoenolpyruvate, 300 μM NADH, 30 μg/ml pyruvate kinase and 10 μg/ml lactate dehydrogenase. […]
as §1, with “60 μl of the stock solution was placed in a 96 well plate followed by addition of 2 μA of DMSO stock containing serial dilutions of the test compound (typically starting from a final concentration of 7.5 μM).” left out, “25°” for “30°”

Btk = Btk (Homo sapiens, UniProt Q06187); test: BTK inhibition assay, radioactive-phosphate incorporation; conditions: 50 μM [γ-33P]ATP, 25 nM Btk, 25° C.
Chain of Btk (Q06187 whole entry, species assumed): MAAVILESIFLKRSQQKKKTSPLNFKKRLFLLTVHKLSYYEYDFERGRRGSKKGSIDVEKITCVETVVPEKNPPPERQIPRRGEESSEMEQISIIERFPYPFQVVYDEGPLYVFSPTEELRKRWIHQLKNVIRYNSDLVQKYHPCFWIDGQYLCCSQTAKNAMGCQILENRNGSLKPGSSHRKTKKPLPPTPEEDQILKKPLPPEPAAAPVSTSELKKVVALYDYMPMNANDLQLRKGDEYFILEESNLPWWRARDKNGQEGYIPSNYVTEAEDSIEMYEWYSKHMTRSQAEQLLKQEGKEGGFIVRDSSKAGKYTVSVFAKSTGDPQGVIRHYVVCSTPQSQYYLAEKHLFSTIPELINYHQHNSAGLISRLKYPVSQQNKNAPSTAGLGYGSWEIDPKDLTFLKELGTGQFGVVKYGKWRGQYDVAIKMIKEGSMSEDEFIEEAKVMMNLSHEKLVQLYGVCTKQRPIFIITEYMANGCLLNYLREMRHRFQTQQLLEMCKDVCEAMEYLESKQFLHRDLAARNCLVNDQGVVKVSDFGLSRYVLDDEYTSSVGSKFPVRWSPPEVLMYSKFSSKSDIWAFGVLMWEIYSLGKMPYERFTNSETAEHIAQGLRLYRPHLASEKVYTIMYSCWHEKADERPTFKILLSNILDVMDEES
Method: Compounds were screened for their ability to inhibit Btk using a radioactive-phosphate incorporation assay at Vertex Pharmaceuticals. Assays were carried out in a mixture of 20 mM MOPS (pH 7.0), 10 mM MgCl2, 0.1% BSA and 1 mM DTT. Final substrate concentrations in the assay were 50 μM [γ-33P]ATP (200mCi 33P ATP/mmol ATP, Amersham Pharmacia Biotech, Amersham, UK/Sigma Chemicals) and 2 μM peptide (SAM68 D332-443). Assays were carried out at 25° C. and in the presence of 25 nM Btk. An assay stock buffer solution was prepared containing all of the reagents listed above, with the exception of the peptide and the test compound of interest. 75 μL of the stock solution was placed in a 96 well plate followed by addition of 2 μL of DMSO stock containing serial dilutions of the test compound (typically starting from a final concentration of 15 μM) in duplicate (final DMSO concentration 2%). The plate was preincubated for 15 minutes at 25° C. and the reaction initiated by addition of 25 μL peptide (final concentration 2 μM). Background counts were determined by the addition of […] 0.2M phosphoric acid+0.01% TWEEN to control wells containing assay stock buffer and DMSO prior to initiation with peptide.
as §2, with “phosphoric acid+0.01% TWEEN. A multiscreen” for “phosphoric acid+0.01% TWEEN 20. A multiscreen”, “TWEEN 20. After drying, 30 μL Optiphase ‘SuperMix’ liquid scintillation cocktail (Perkin Elmer) was added to the well prior to scintillation counting (1450 Microbeta Liquid Scintillation Counter, Wallac).” for “TWEEN 20.”
After removing mean background values for all of the data points, Ki(app) data were calculated from non-linear regression analysis using the Prism software package (GraphPad Prism version 3.0cx for Macintosh, GraphPad Software, San Diego Calif., USA).

Ki (Rlk) [nM] | Ki (Itk [1]) [nM] | Ki (Itk [2]) [nM] | Ki (Btk) [nM] | SMILES
> 1000 | 100 to 1000 | 100 to 1000 |  | O=C(Nc1cc(-c2ccncc2)c[nH]c1=O)c1ccc(CCl)cc1 [Compound I-5]
> 1000 | 100 to 1000 | 100 to 1000 |  | CC(C)(C)c1ccc(C(=O)Nc2cc(-c3ccncc3)c[nH]c2=O)cc1 [Compound I-11, 4-tert-Butyl-N-(6-oxo-1,6-dihydro-[3,4]bipyridinyl-5-yl)-benzamide]
 | 100 to 1000 | 100 to 1000 |  | O=C(Nc1cc(-c2ccncc2)c[nH]c1=O)c1ccc(N2CCCC2)cc1 [Compound I-69]
 |  | < 100 |  | CN1CCN(c2ccc(C(=O)Nc3cc(-c4ccncc4)c[nH]c3=O)cc2)CC1 [Compound I-70]
 |  | < 100 |  | O=C(Nc1cc(-c2ccncc2)c[nH]c1=O)c1ccc(N2CCCCCC2)cc1 [Compound I-76]
 |  | < 100 |  | O=C(Nc1cc(-c2ccncc2)c[nH]c1=O)c1ccc(N2CCCNCC2)cc1 [Compound I-78]
 |  | < 100 |  | CN(C)CCCNc1ccc(C(=O)Nc2cc(-c3ccncc3)c[nH]c2=O)cc1 [Compound I-79]
 |  | < 100 |  | NCCCNc1ccc(C(=O)Nc2cc(-c3ccncc3)c[nH]c2=O)cc1 [Compound I-80]
 | 100 to 1000 | 100 to 1000 |  | O=C(Nc1cc(-c2ccncc2)c[nH]c1=O)c1ccc(CN2CCOCC2)cc1 [Compound I-82]
 | 100 to 1000 | 100 to 1000 |  | O=C(Nc1cc(-c2ccncc2)c[nH]c1=O)c1ccc(CN2CCNCC2)cc1 [Compound I-83]
 | 100 to 1000 | 100 to 1000 |  | CNCCN(C)Cc1ccc(C(=O)Nc2cc(-c3ccncc3)c[nH]c2=O)cc1 [Compound I-84]
 | 100 to 1000 | 100 to 1000 |  | CSc1nccc(-c2c[nH]c(=O)c(NC(=O)c3ccc(C(C)(C)C)cc3)c2)n1 [II-4, 4-tert-Butyl-N-[5-(2-methylsulfanyl-pyrimidin-4-yl)-2-oxo-1,2-dihydro-pyridin-3-yl]-benzamide]
> 1000 | 100 to 1000 | 100 to 1000 |  | CNc1cccc(-c2c[nH]c(=O)c(NC(=O)c3ccc(C(C)(C)C)cc3)c2)n1 [II-7]
> 1000 | 100 to 1000 | 100 to 1000 |  | CNc1cc(-c2c[nH]c(=O)c(NC(=O)c3ccc(C(C)(C)C)cc3)c2)nc(SC)n1 [II-41]
 | 100 to 1000 |  | > 500 | CNc1ccc(C)c(-c2c[nH]c(=O)c(NC(=O)c3ccc(C(C)(C)C)cc3)c2)c1 [II-43]
> 1000 | 100 to 1000 |  |  | O=C1C=C(c2c[nH]c(=O)c(NC(=O)c3ccc(N4CCCCC4)cc3)c2)CCC1 [II-85]
> 1000 | 100 to 1000 |  |  | O=C1C=C(c2c[nH]c(=O)c(NC(=O)c3ccc(N4CCCCC4)cc3)c2)CC1 [II-87]
> 1000 | < 100 |  |  | CNc1cncc(-c2c[nH]c(=O)c(NC(=O)c3ccc(OCCC4CCNCC4)cc3)c2)n1 [II-143]
> 1000 | < 100 |  |  | CNc1cncc(-c2c[nH]c(=O)c(NC(=O)c3ccc(N4CCN(CCO)CC4)cc3)c2)n1 [II-148]
> 1000 | < 100 |  |  | CNc1cc(C#N)cc(-c2c[nH]c(=O)c(NC(=O)c3ccc(N4CCNCC4)cc3)c2)n1 [II-160]
> 1000 | < 100 |  |  | CNc1cncc(-c2c[nH]c(=O)c(NC(=O)c3ccc(NC4CCNCC4)cc3)c2)n1 [II-163]
> 1000 | < 100 |  |  | CNc1cncc(-c2c[nH]c(=O)c(NC(=O)c3ccc(N(C)CCN(C)C)cc3)c2)n1 [II-164]
> 1000 | < 100 |  |  | CNc1cncc(-c2c[nH]c(=O)c(NC(=O)c3ccc(N4CC[C@@H](N(C)C)C4)cc3)c2)n1 [II-166]
> 1000 | < 100 |  |  | CNc1cncc(-c2c[nH]c(=O)c(NC(=O)c3ccc(NCCCn4ccnc4)cc3)c2)n1 [II-168]
> 1000 | < 100 |  |  | CNc1cc(F)cc(-c2c[nH]c(=O)c(NC(=O)c3ccc(N4CCC[C@H]4CN4CCCC4)cc3)c2)n1 [II-171]
> 1000 | < 100 |  |  | CNc1cncc(-c2c[nH]c(=O)c(NC(=O)c3ccc(N4CCC[C@H]4CN4CCCC4)cc3)c2)c1 [II-178]
> 1000 | < 100 |  |  | CNc1cc(C#N)cc(-c2c[nH]c(=O)c(NC(=O)c3ccc(N4CCC[C@H]4CN4CCCC4)cc3)c2)c1 [II-179]
> 1000 | 100 to 1000 |  |  | CC(C)c1ccc(NC(=O)c2cc(-c3ccncc3)c[nH]c2=O)cc1 [III-4]
> 1000 | 100 to 1000 |  |  | CC(C)(C)c1ccc(NC(=O)c2cc(-c3ccncc3)c[nH]c2=O)cc1 [III-5]
